Results on two compounds are retold here after ChEMBL document CHEMBL4665650, “Towards a TREK-1/2 (TWIK-Related K+ Channel 1 and 2) dual activator tool compound: Multi-dimensional optimization of BL-1249” (Bioorg Med Chem Lett, 2019).

As usually defined, the inhibition is the drop in the measured response relative to a control, in per cent. For orientation: Cmax means the maximum level reached in the sampled fluid or tissue. By fraction unbound is commonly meant the share of the substance not bound to proteins or other matrix. One may read the EC50 as the concentration at which the effect is half-maximal. Read a low EC50 as an effect from little substance. As a reminder, the AUC is concentration integrated over time.

For data set [1], the target named is Cysteinyl leukotriene receptor 1 (Homo sapiens) (UniProt Q9Y271). In words: Displacement of [3H]LTD4 from full length recombinant human CysLT1 Leukotriene receptor expressed in CHO-K1 cells at 30 uM incubated for 30 mins by radiometric scintillation analysis relative to control. Format: cell-based. (In general: Displacement assays read how much labelled ligand stays bound in the presence of the test substance.)

Data set [2] addresses Sodium-dependent noradrenaline transporter (Homo sapiens) (UniProt P23975). In words: Displacement of [125I]RTI-55 from full length recombinant human NET expressed in MDCK cells at 30 uM after 180 mins by radiometric scintillation analysis relative to control. It counts as cell-based.
Data set [3] concerns the target T1, Potassium channel subfamily K member 2 (Homo sapiens) (UniProt O95069).
T1 sequence (whole entry): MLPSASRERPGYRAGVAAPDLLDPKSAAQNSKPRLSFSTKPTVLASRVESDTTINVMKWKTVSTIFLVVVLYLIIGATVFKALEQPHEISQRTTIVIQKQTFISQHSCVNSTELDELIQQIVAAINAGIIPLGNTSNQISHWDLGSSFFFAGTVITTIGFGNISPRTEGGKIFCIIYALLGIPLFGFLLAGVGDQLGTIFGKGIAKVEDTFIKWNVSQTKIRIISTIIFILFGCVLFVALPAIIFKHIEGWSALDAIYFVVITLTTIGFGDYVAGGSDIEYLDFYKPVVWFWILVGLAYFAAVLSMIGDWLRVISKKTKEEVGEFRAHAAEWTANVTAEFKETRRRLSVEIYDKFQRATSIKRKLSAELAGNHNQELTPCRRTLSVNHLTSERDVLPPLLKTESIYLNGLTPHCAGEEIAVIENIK
In words: Activation of human TREK1 at 30 uM by thallium flux mobilization assay relative to control. To be noted: filed as activator.

Data set [4] is described as follows: Cmax in rat at 3 mg/kg, po. Also on record: route oral, dose 3 mg/kg. It counts as ADME, organism-based. Conditions: in vivo.
Data set [5] concerns the target T2, Potassium channel subfamily K member 10 (Homo sapiens) (UniProt P57789).
T2 sequence (whole entry): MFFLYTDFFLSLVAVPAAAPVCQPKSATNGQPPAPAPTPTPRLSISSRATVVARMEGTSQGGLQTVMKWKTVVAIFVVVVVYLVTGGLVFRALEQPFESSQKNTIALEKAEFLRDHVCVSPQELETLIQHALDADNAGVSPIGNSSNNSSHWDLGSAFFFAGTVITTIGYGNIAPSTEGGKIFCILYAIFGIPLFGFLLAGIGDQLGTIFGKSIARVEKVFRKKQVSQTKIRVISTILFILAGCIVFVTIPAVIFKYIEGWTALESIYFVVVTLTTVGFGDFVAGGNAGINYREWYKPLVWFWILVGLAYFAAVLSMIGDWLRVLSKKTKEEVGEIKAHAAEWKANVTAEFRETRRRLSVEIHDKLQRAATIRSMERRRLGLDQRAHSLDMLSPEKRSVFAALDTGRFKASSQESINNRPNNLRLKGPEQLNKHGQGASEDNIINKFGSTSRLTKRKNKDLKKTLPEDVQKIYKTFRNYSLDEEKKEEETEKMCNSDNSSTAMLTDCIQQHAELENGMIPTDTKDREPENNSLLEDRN
The data set can be described thus: Activation of human TREK2 at 30 uM by thallium flux mobilization assay relative to control. Conditions: filed as activator.

Data set [6] addresses A-type potassium channel modulatory protein KCNIP2 (Homo sapiens) (UniProt Q9NS61). In words: Inhibition of KCHiP (unknown origin) at 30 uM by manual patch clamp method relative to control. A general note: Patch clamp records ionic current or voltage across a cell membrane.
For data set [7], the target named is 5-hydroxytryptamine receptor 1A (Homo sapiens) (UniProt P08908). In words: Displacement of [3H]-8-OH-DPAT from full length recombinant human 5HT1A receptor expressed in CHO-K1 cells at 30 uM incubated for 60 mins by radiometric scintillation analysis relative to control. It counts as cell-based.
The target of another data set is Kv7.1 (Homo sapiens, UniProt P51787). In words: Inhibition of Kv7.1 (unknown origin) at 30 uM by manual patch clamp method relative to control.
For data set [8], the target named is Potassium voltage-gated channel subfamily KQT member 3 (Homo sapiens) (UniProt O43525). In words: Inhibition of Kv7.3 (unknown origin) at 30 uM by manual patch clamp method relative to control.
Data set [9] has as its target Adenosine receptor A1 (Homo sapiens) (UniProt P30542). The data set can be described thus: Displacement of [3H]DPCPX from recombinant full length human adenosine A1 receptor expressed in CHO-K1 cells at 30 uM incubated for 90 mins by radiometric scintillation analysis relative to control. It counts as cell-based.
For data set [10], the species on record is Rattus norvegicus. In words: Displacement of [35S] dATPalphaS from Wistar rat brain P2Y receptor at 30 uM incubated for 180 mins by radiometric scintillation analysis relative to control. Format: tissue-based.
For data set [11], the target named is Intermediate conductance calcium-activated potassium channel protein 4 (Homo sapiens) (UniProt O15554). In words: Activation of Kca3.1 (unknown origin) at 30 uM by manual patch clamp method relative to control.
Sequence of Intermediate conductance calcium-activated potassium channel protein 4 (Homo sapiens) (O15554 whole entry): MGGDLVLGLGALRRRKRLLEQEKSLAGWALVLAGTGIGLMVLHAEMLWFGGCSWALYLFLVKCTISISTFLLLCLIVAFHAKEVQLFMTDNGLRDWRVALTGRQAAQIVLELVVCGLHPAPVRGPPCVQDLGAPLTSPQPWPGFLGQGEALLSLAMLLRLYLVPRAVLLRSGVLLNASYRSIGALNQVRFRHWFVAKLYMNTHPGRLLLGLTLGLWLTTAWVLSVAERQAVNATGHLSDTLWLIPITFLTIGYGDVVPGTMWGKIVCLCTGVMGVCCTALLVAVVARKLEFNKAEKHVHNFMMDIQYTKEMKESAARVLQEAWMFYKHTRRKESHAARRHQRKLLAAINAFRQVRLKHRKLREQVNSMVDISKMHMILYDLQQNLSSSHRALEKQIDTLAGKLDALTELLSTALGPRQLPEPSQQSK
Data set [12] can be described thus: Fraction unbound in rat plasma. Format: ADME, cell-free.
A short description of data set [13]: Fraction unbound in mouse plasma. It counts as ADME, cell-free.
A short description of data set [14]: Fraction unbound in human plasma. Format: ADME, cell-free.
For data set [15], the species on record is Rattus norvegicus. The data set can be described thus: Displacement of [3H]GABA from rat brain GABA receptor at 30 uM after 20 mins by radiometric scintillation analysis relative to control.
The nature of data set [16]: Elimination half life in rat at 3 mg/kg, po. It counts as ADME, organism-based. To be noted: in vivo, read-out: beta t1/2 (converted).
In data set [17] the target is T3, Potassium channel subfamily K member 2 (Homo sapiens, UniProt O95069).
T3 sequence (O95069 whole entry): T1 sequence (whole entry)
The data set can be described thus: Activation of human TREK1 by thallium flux mobilization assay.

In data set [18] the target is Androgen receptor (Homo sapiens) (UniProt P10275). The data set can be described thus: Displacement of [3H]methyltrienolone from human LNCaP cells derived androgen receptor at 30 uM measured after 1200 mins by radiometric scintillation analysis relative to control. Format: cell-based.
Sequence of Androgen receptor (Homo sapiens) (P10275 whole entry): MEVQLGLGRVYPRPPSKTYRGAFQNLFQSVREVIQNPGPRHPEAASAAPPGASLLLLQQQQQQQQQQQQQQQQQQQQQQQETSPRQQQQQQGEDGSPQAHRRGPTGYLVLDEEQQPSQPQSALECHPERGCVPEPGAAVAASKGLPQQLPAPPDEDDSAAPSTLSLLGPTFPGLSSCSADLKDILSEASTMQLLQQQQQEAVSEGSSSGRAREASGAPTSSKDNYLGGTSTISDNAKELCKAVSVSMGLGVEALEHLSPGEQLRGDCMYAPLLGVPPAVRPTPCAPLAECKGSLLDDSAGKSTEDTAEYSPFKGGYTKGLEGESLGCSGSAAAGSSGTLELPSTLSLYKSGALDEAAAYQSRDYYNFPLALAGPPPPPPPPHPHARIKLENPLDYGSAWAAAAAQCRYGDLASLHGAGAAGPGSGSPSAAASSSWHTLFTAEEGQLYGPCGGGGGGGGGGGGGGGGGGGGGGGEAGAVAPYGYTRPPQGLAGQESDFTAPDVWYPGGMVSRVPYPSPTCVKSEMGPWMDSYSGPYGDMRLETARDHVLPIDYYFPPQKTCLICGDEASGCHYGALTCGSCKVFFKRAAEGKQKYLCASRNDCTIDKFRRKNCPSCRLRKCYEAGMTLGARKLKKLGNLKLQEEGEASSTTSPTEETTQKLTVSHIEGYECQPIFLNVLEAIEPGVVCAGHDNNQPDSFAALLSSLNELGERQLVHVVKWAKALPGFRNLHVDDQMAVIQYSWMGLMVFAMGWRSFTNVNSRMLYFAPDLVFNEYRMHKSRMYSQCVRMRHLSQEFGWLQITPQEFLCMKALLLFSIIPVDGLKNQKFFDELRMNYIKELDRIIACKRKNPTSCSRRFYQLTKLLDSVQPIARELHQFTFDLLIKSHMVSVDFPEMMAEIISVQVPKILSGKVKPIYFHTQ
The species entered for data set [19] is Rattus norvegicus. In words: Displacement of [125I]-Triiodothyronine from thyroid hormone receptors in rat at 30 uM incubated for 1080 mins by radiometric scintillation analysis relative to control.
Data set [20] deals with Inward rectifier potassium channel 2 (Homo sapiens, UniProt P63252). In words: Activation of Kir2.1 (unknown origin) at 30 uM by manual patch clamp method relative to control.
Sequence of Inward rectifier potassium channel 2 (P63252 whole entry): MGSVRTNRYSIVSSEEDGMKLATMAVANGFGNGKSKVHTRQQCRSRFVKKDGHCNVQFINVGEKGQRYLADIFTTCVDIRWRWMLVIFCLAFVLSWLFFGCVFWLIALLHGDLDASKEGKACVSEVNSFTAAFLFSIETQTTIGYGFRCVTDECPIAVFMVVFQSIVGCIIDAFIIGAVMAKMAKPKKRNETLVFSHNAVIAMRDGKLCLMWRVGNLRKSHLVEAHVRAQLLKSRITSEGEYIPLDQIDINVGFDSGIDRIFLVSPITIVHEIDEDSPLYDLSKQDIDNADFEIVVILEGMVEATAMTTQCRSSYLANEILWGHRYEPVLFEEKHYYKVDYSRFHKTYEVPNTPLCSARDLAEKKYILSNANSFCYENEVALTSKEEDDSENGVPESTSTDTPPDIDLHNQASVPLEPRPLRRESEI
Data set [21] concerns the target Neuronal acetylcholine receptor subunit alpha-7 (Homo sapiens) (UniProt P36544). The data set can be described thus: Inhibition of alpha7 nAChR (unknown origin) at 30 uM by manual patch clamp method relative to control.
Data set [22] addresses Potassium/sodium hyperpolarization-activated cyclic nucleotide-gated channel 4 (Homo sapiens) (UniProt Q9Y3Q4). In words: Activation of HCN4 (unknown origin) at 30 uM by manual patch clamp method relative to control.
Data set [23] concerns the target T4, Potassium channel subfamily K member 10 (Homo sapiens, UniProt P57789).
T4 sequence (P57789 whole entry): T2 sequence (whole entry)
The data set can be described thus: Activation of human TREK2 by thallium flux mobilization assay.

The target in data set [24] is Potassium voltage-gated channel subfamily A member 3 (Homo sapiens) (UniProt P22001). The data set can be described thus: Inhibition of Kv1.3 (unknown origin) at 30 uM by manual patch clamp method relative to control.
Data set [25] has as its target Sodium-dependent dopamine transporter (Homo sapiens) (UniProt Q01959). The data set can be described thus: Displacement of [125I]RTI-55 from full length recombinant human dopamine transporter expressed in CHO-S cells at 30 uM after 180 mins by radiometric scintillation analysis relative to control. It counts as cell-based.
Data set [26] addresses Adenosine receptor A2a (Homo sapiens) (UniProt P29274). In words: Displacement of [3H]CGS-21680 from full length recombinant human A2A receptor expressed in HEK293 cells at 30 uM measured after 90 mins by radiometric scintillation analysis relative to control. Format: cell-based.
The target in data set [27] is A-type voltage-gated potassium channel KCND3 (Homo sapiens, UniProt Q9UK17). In words: Activation of Kv4.3 (unknown origin) at 30 uM by manual patch clamp method relative to control.
Sequence of A-type voltage-gated potassium channel KCND3 (Q9UK17 whole entry): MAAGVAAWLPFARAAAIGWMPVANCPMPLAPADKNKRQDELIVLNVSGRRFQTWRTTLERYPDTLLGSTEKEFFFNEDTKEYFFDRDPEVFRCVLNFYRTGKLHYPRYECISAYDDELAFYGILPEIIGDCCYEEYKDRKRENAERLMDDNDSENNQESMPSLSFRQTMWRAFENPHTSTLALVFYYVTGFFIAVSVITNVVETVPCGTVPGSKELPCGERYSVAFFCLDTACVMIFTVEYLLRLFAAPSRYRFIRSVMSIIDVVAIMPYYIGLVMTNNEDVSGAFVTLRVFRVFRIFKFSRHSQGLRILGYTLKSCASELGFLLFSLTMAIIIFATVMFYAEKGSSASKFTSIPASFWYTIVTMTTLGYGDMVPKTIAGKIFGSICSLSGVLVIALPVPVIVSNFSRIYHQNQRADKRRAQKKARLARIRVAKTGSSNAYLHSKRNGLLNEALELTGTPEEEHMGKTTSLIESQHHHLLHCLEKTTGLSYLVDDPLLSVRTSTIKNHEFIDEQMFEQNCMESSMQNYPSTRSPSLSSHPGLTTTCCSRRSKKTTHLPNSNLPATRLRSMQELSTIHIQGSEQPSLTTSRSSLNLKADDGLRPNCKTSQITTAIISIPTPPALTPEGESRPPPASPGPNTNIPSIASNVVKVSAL
Data set [28] can be described thus: AUC in rat at 3 mg/kg, po. Format: ADME, organism-based. Also on record: dose 3 mg/kg. Conditions: in vivo.
Data set [29] can be described thus: Half life in rat at 0.05 mg/kg, iv administered as cassette dose. Conditions: in vivo. Format: ADME, organism-based.

Sequence of Adenosine receptor A2a (Homo sapiens) (P29274 whole entry): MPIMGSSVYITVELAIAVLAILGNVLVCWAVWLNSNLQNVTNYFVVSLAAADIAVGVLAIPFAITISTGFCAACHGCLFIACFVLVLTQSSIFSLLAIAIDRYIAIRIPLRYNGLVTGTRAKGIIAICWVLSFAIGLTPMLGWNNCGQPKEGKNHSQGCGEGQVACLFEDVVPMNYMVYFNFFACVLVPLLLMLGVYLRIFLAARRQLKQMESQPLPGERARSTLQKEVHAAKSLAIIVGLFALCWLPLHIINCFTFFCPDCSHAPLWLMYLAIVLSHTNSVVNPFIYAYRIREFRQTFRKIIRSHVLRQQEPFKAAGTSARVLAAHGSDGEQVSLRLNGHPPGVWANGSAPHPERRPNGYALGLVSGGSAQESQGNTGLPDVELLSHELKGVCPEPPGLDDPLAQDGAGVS
Sequence of Sodium-dependent dopamine transporter (Homo sapiens) (Q01959 whole entry): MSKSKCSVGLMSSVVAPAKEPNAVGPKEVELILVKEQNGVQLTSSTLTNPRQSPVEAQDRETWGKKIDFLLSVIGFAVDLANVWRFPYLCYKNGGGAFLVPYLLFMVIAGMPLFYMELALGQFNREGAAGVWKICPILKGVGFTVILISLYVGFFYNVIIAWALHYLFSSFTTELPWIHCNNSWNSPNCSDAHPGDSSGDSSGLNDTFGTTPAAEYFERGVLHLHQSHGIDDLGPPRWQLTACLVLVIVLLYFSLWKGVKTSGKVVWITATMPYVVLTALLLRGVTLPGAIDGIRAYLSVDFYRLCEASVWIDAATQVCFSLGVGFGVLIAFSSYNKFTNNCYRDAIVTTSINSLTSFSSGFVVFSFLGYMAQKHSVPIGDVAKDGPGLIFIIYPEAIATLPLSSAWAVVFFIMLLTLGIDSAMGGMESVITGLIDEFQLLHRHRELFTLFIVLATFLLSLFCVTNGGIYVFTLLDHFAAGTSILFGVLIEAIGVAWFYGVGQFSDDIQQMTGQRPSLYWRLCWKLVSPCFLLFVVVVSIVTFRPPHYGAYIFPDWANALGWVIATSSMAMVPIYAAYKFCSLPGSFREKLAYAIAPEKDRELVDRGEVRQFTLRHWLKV
Sequence of A-type potassium channel modulatory protein KCNIP2 (Homo sapiens) (Q9NS61 whole entry): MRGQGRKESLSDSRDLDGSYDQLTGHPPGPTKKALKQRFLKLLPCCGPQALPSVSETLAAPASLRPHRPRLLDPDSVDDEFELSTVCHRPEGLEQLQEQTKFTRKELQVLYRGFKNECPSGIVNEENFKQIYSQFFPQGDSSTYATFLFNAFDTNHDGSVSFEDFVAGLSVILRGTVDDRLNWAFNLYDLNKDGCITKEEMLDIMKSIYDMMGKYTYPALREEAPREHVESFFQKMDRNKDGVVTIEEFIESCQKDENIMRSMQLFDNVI
Sequence of Potassium/sodium hyperpolarization-activated cyclic nucleotide-gated channel 4 (Homo sapiens) (Q9Y3Q4 whole entry): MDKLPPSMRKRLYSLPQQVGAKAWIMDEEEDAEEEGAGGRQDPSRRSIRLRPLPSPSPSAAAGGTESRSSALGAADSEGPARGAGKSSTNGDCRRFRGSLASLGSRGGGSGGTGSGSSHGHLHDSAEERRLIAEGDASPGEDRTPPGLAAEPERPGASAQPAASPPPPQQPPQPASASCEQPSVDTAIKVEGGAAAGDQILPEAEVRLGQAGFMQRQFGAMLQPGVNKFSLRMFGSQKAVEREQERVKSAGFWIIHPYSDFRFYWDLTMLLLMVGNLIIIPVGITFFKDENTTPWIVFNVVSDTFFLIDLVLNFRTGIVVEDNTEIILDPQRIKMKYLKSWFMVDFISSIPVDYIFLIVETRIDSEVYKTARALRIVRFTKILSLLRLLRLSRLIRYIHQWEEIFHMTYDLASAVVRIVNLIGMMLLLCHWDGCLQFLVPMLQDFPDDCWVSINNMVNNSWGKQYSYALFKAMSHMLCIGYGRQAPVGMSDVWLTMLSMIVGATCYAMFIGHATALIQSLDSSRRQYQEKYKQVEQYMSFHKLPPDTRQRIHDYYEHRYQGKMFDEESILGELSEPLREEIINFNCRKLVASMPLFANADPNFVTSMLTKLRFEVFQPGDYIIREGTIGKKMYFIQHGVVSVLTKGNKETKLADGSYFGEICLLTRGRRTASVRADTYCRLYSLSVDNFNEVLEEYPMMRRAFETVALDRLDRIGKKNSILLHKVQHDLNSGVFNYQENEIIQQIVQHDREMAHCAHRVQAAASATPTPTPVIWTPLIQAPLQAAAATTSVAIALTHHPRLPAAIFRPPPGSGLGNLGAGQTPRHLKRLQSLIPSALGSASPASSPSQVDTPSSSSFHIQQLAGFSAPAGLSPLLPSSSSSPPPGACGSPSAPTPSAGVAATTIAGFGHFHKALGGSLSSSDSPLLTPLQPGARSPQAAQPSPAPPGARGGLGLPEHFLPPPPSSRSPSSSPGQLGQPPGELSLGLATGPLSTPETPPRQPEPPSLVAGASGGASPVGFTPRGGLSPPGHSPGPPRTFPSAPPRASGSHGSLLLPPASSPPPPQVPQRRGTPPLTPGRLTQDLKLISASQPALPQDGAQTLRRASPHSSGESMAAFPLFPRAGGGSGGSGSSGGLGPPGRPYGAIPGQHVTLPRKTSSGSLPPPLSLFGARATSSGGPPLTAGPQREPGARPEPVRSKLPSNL

Take `O=C(Nc1cc(F)c(Br)cc1C(=O)O)c1ccc(SC(F)(F)F)cc1`: the inhibition was determined as 69% in [1]; 77% in data set [2]; 76% in [6]; 79% in data set [7]; 39% in data set [8]; 70% in data set [9]. The inhibition in the data set filed under Rattus norvegicus [10] turned out to be 90%; in the data set listed under Rattus norvegicus [15] it was 70%; in data set [18], 79%; in the data set listed under Rattus norvegicus [19], 79%; in data set [21], 7%; in data set [24], 94%. For the same compound, the inhibition turned out to be 67% in [25] and 55% in data set [26]. For the same compound, the Activity in data set [3] was 101%; in data set [5], 84%; in data set [11] it was -9%; in [20], -16%; in data set [22], -32%; in data set [27], -21%. In data set [4], this compound displayed a Cmax of 8.8 µM. This compound also returned an inhibition at 30 µM at Kv7.1 of 57%. The fraction unbound is 0.041 in data set [12], 0.052 in [13] and 0.003 in data set [14]. In addition, the half-life in data set [16] was 6.3 h. The EC50 in data set [17] worked out at 6.1 µM; in [23], 5.5 µM. The same compound returned an AUC in data set [28] of 60.6 µM·h.

As for `c1ccc(-c2nnn[nH]2)c(Nc2cccc3c2CCCC3)c1`, the Activity worked out at 109% in data set [3] and 133% in data set [5]. In addition, the half-life in data set [29] was 3 min. Further, the unbound share (fraction unbound) in [12] was 0.001; in [14], < 0.001. The EC50 was found to be 5.2 µM in data set [17] and 7.7 µM in data set [23].
